From paper PMC5119973 (Cancer Medicine, 2016)
pKd: −log10 of the molar value. “And” between values parts separate entries of the source, which are not always exact repeats. Identical values can stand only once.

Assays:
[1] = biological target: T1, CDK8 (Homo sapiens, UniProt P49336); test: KINOMEscan active-site competitive binding assay; details: slash = two separate measurements
T1 construct: purchased DiscoveRx (KINOMEscan service)

[2] = biological target: T2, CDKL2 (Homo sapiens, UniProt Q92772); test: KINOMEscan active-site competitive binding assay; details: slash = two separate measurements
T2 construct: purchased DiscoveRx (KINOMEscan service)
T2 sequence (Q92772 1-493): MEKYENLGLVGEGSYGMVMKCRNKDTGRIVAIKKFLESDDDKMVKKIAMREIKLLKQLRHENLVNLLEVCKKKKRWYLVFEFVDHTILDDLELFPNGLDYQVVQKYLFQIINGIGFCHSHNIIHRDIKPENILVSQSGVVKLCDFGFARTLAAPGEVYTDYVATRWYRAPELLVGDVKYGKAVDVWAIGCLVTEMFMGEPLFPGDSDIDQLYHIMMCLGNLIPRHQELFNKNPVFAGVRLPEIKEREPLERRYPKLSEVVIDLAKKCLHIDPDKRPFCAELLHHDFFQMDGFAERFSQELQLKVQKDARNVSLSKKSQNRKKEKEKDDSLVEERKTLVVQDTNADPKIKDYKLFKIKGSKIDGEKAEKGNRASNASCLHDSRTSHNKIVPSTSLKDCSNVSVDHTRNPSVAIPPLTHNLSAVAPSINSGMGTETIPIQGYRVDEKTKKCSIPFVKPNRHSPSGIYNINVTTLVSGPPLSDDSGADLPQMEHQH

[3] = biological target: T3, DDR1 (Homo sapiens, UniProt Q08345); test: KINOMEscan active-site competitive binding assay; details: slash = two separate measurements
T3 construct: purchased DiscoveRx (KINOMEscan service)

[4] = biological target: T4, EPHA8 (Homo sapiens, UniProt P29322); test: KINOMEscan active-site competitive binding assay; details: slash = two separate measurements
T4 construct: purchased DiscoveRx (KINOMEscan service)
T4 sequence (P29322 28-1005): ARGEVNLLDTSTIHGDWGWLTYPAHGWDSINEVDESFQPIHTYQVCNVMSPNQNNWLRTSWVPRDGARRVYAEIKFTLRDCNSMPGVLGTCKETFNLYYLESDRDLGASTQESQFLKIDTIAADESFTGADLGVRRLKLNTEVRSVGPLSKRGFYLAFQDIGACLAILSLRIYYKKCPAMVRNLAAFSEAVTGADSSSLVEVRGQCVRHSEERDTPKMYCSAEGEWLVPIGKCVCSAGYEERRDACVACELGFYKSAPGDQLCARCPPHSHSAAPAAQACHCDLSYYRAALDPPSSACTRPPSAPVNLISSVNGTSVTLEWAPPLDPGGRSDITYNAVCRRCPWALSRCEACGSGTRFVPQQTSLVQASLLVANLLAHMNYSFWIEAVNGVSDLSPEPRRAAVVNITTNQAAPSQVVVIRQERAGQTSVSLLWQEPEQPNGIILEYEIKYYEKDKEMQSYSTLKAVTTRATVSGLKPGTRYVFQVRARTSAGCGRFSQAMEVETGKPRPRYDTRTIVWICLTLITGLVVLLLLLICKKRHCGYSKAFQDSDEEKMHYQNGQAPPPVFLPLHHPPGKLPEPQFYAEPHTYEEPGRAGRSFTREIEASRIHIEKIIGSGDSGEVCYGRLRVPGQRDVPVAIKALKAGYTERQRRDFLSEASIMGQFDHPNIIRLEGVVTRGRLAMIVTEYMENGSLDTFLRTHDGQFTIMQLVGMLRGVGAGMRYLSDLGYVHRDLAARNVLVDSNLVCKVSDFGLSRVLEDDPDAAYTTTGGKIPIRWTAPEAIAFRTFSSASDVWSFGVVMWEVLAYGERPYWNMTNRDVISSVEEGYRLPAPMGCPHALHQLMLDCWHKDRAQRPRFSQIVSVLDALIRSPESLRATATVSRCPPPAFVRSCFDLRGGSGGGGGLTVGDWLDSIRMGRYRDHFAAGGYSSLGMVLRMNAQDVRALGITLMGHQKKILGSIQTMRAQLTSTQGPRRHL

[5] = biological target: T5, SLK (Homo sapiens, UniProt Q9H2G2); test: KINOMEscan active-site competitive binding assay; details: slash = two separate measurements
T5 construct: purchased DiscoveRx

[6] = biological target: T6, TAOK3 (Homo sapiens, UniProt Q9H2K8); test: KINOMEscan active-site competitive binding assay; details: slash = duplicate values
T6 construct: purchased DiscoveRx
T6 sequence (Q9H2K8 1-898): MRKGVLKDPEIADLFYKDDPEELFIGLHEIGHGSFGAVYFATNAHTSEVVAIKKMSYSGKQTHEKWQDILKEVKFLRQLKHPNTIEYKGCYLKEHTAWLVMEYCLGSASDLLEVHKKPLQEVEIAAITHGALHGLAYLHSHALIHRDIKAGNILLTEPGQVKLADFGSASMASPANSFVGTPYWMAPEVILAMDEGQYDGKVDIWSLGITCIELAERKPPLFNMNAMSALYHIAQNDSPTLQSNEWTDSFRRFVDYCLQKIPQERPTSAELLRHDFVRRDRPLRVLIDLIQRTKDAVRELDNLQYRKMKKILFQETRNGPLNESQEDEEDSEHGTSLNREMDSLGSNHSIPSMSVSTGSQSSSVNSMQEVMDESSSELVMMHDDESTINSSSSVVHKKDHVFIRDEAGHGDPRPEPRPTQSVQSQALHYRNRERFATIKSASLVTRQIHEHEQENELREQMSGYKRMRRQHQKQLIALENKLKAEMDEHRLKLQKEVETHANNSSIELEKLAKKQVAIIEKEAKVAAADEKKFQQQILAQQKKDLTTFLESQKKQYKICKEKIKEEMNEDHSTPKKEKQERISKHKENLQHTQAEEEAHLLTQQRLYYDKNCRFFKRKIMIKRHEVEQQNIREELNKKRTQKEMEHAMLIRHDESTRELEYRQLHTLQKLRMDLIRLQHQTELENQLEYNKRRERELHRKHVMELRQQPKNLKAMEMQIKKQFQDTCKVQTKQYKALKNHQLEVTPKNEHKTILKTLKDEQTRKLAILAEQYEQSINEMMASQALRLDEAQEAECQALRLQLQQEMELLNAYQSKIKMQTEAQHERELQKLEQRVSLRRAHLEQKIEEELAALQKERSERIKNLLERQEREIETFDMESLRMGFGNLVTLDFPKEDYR

[7] = biological target: T7, ZAK (Homo sapiens, UniProt Q9NYL2); test: KINOMEscan active-site competitive binding assay; details: slash = two separate measurements
T7 construct: purchased DiscoveRx

[8] = tested on: lung tumor cell lines expressing wt or mutant DDR2; test: Preliminary in vitro proliferation, lung tumor cell lines expressing wt or mutant DDR2; format: cell-based; details: unpubl. data

T7 sequence (Q9NYL2 whole entry): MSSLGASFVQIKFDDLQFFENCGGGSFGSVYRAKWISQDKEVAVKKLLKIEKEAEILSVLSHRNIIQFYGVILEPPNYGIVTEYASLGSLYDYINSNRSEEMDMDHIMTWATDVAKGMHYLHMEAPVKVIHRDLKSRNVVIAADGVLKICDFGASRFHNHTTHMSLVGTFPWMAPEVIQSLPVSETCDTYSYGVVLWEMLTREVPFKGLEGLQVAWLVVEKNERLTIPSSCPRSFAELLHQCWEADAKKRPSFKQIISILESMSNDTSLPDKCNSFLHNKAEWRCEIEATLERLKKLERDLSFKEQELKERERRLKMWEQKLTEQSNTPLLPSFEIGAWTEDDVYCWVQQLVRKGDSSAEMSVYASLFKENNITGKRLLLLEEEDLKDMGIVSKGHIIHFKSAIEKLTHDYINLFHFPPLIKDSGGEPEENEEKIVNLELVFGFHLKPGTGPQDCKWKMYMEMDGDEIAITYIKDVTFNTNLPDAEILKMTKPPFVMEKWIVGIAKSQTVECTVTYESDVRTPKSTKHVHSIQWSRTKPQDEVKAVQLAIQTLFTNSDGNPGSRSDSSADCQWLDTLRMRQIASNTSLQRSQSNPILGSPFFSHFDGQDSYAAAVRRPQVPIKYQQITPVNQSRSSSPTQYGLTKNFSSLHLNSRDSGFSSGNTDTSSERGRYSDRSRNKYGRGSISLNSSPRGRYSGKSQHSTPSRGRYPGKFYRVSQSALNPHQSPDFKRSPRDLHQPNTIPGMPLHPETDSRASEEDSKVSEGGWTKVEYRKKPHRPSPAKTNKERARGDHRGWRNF
T1 sequence (P49336 whole entry): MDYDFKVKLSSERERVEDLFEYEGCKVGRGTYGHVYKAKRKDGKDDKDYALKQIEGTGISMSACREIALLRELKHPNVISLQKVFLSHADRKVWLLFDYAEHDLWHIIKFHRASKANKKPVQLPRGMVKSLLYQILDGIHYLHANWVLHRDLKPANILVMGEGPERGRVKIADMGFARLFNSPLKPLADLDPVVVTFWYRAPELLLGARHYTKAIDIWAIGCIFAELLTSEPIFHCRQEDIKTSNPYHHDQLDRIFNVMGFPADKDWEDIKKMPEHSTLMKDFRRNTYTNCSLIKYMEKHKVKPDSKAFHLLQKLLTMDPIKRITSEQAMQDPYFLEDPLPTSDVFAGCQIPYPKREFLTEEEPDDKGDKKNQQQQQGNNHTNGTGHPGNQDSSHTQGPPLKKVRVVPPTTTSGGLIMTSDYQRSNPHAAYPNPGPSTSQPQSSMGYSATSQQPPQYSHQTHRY
T3 sequence (Q08345 19-913): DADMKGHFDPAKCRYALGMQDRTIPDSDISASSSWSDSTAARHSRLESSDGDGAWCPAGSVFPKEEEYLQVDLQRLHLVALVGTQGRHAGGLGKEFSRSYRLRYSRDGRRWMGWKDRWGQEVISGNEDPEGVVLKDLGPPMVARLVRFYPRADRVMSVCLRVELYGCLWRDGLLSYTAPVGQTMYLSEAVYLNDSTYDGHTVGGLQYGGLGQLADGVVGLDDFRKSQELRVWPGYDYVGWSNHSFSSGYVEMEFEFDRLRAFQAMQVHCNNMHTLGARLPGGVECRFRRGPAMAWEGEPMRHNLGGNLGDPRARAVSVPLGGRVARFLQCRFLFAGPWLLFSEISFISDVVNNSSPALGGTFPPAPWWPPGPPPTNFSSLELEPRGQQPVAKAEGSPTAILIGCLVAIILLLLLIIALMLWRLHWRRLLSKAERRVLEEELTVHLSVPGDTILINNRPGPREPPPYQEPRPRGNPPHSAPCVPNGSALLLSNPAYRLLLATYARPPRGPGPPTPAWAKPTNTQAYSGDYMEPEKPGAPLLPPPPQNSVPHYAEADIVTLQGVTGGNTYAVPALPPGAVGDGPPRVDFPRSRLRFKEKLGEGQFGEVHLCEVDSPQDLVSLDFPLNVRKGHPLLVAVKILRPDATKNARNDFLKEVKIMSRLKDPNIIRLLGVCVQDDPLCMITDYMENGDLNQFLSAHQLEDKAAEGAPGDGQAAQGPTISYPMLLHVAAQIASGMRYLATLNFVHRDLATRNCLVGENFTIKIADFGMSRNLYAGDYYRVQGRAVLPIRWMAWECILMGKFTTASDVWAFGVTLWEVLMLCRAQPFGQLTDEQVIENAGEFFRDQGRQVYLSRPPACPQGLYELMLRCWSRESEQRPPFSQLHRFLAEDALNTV
T5 sequence (Q9H2G2 whole entry): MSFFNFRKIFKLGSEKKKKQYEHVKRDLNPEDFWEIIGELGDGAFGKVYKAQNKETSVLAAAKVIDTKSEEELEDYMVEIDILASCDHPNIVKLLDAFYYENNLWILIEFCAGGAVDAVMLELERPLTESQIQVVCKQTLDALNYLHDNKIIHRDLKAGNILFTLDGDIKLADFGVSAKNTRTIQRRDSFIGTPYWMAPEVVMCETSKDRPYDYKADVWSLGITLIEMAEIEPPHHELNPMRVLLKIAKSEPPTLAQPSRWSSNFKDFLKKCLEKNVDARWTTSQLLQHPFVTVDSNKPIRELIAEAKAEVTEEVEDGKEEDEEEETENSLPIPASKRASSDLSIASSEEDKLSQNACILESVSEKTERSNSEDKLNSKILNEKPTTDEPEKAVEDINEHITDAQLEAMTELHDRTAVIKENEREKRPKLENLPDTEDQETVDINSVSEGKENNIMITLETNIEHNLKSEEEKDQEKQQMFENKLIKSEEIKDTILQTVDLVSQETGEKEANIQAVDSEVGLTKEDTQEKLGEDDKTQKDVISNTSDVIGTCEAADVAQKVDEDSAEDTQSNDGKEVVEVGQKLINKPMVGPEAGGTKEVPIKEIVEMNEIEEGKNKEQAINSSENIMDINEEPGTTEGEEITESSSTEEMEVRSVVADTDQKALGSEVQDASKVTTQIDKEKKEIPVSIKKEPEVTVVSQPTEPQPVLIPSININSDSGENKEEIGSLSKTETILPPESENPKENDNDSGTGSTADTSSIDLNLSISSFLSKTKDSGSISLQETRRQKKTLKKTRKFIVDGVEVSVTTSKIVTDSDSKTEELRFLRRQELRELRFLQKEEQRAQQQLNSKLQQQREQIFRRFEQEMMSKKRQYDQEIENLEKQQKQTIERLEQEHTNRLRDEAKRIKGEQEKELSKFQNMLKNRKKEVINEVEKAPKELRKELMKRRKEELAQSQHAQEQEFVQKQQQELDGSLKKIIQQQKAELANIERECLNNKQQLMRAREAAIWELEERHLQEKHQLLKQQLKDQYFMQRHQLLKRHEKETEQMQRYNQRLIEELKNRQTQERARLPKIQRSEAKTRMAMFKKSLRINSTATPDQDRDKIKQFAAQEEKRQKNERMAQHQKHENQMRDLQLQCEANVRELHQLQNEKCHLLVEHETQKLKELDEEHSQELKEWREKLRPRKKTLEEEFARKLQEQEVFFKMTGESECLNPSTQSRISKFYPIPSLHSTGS

Row | SMILES | pKd [1] | pKd [2] | pKd [3] | pKd [4] | pKd [5] | pKd [6] | pKd [7] | Inhibition of proliferation [8]
1 | CNC(=O)c1cc(Oc2ccc(NC(=O)Nc3ccc(Cl)c(C(F)(F)F)c3)c(F)c2)ccn1 [Regorafenib, reference compound] | 7.00 and 7.14 | 7.32 and 7.24 | 9.05 and 9.10 | 6.85 and 6.89 | 6.92 and 7.01 | 6.70 and 6.54 | 8.55 and 8.70 | only moderate inhibition
2 | NC(=O)c1cc(Oc2ccc(NC(=O)Nc3ccc(Cl)c(C(F)(F)F)c3)c(F)c2)cc[n+]1[O-] [M‐5] | 6.85 | 5.96 | 9.40 | 7.14 | 7.00 | 6.35 | 8.15 | only moderate inhibition
3 | CNC(=O)c1cc(Oc2ccc(NC(=O)Nc3ccc(Cl)c(C(F)(F)F)c3)c(F)c2)cc[n+]1[O-] [M‐2] | 7.37 | 7.12 | 9.30 | 7.21 | 7.19 | 7.03 and 7.11 | 8.17 | only moderate inhibition
